Entries after “also recorded” stand apart in the source; their conditions may differ.
Experiments:
Type in all cases: physicochemical
[1] = Stability at 40° C. and 75% of relative humidity, open vials, monitored by Raman spectroscopy and PXRD; conditions: for Stability in the reported conditions (heat and humidity): 40° C. and 75% r.h., summary statement; for Change of solid form by PXRD and Raman: open vials, 40° C., 75% relative humidity, after one and four weeks; for RESULTING FORM: Storage at 40° C. and 75% r.h., 28 d.
Description: Stability at 40° C. and 75% of relative humidity of atorvastatin 4-(nitrooxy)butyl ester A and form B in comparison with the amorphous form was assessed. Atorvastatin 4-(nitrooxy)butyl ester form A, form B and amorphous were stored in open vials for one month at 40° C. and in presence of 75% of relative humidity, and the samples were monitored by Raman spectroscopy and by PXRD after one and four weeks.

[2] = Stability of amorphous form in aqueous suspension at room temperature, monitored by Raman spectroscopy and PXRD; conditions: for RESULTING FORM: Suspension in H2O, rt
Description: Stability of amorphous atorvastatin 4-(nitrooxy)butyl ester in aqueous suspension was assessed. Amorphous atorvastatin 4-(nitrooxy)butyl ester was suspended in water at room temperature while stirring and monitored by Raman spectroscopy after one, seven and twenty-eight days.

[3] = General stability statements (humidity, water, organic solvents, heat); conditions: no test details

Row | Change of solid form by PXRD and Raman ([1]; listed as amorphous atorvastatin 4-(nitrooxy)butyl ester) | RESULTING FORM ([2]; 1 d.) | RESULTING FORM ([2]; 1 d., listed as Amorphous atorvastatin 4-(nitrooxy)butyl ester) | RESULTING FORM ([2]; 7 d.) | RESULTING FORM ([2]; 28 d.) | RESULTING FORM ([2]; 28 d., listed as Amorphous atorvastatin 4-(nitrooxy)butyl ester) | RESULTING FORM [1] | Change of solid form by PXRD and Raman [1] | SMILES | Stability in the reported conditions (heat and humidity) ([1]; listed as Amorphous form) | RESULTING FORM ([2]; 7 d., listed as Amorphous atorvastatin 4-(nitrooxy)butyl ester) | Stability in aqueous suspension ([2]; room temperature, summary statement) | Stability (general statement) ([3]; listed as amorphous form of Atorvastatin 4-(nitrooxy)butyl ester) | Stability in the reported conditions (heat and humidity) [1] | Stability (general statement) [3]
1 | converts to form B | Amorphous | pure amorphous | Amorphous (+B) | Amorphous + B | mixture of amorphous form and form B | – | – | CC(C)c1c(C(=O)Nc2ccccc2)c(-c2ccccc2)c(-c2ccc(F)cc2)n1CC[C@@H](O)C[C@@H](O)CC(=O)OCCCCO[N+](=O)[O-] [Amorphous, atorvastatin 4-(nitrooxy)butyl ester] | not stable, showing rapid conversion to form B | detectable amount of form B was observed; also recorded: start of crystallization of form B | not stable in aqueous suspension at room temperature | unstable at humidity conditions, in organic solvents and in stressed thermal conditions | – | –
2 | – | – | – | – | – | – | Form B | no differences in the solid form | CC(C)c1c(C(=O)Nc2ccccc2)c(-c2ccccc2)c(-c2ccc(F)cc2)n1CC[C@@H](O)C[C@@H](O)CC(=O)OCCCCO[N+](=O)[O-] [Form B, (βR,δR)-2(4-fluorophenyl)-β,δ-dihydroxy-5-(1-methylethyl)-3-phenyl-4-[(phenylamino)carbon-yl]-1H-pyrrole-1-heptanoic acid 4-(nitrooxy)butyl ester] | – | – | – | – | stable in the reported conditions for at least four weeks | good stability in water, in organic solvents, and when exposed to heat and humidity
3 | – | – | – | – | – | – | Form A | no differences in the solid form | CC(C)c1c(C(=O)Nc2ccccc2)c(-c2ccccc2)c(-c2ccc(F)cc2)n1CC[C@@H](O)C[C@@H](O)CC(=O)OCCCCO[N+](=O)[O-] [Form A, (βR,δR)-2(4-fluorophenyl)-β,δ-dihydroxy-5-(1-methylethyl)-3-phenyl-4-[(phenylamino)carbon-yl]-1H-pyrrole-1-heptanoic acid 4-(nitrooxy)butyl ester] | – | – | – | – | stable in the reported conditions for at least four weeks | good stability in water, in organic solvents, and when exposed to heat and humidity

— patent US20100152274A1, “CRYSTALLINE FORMS OF ATORVASTATIN 4-(NITROOXY) BUTYL ESTER” (Nicox S.A., priority 2007, published 2010)
